The structures appear in SMILES notation.

The test system of experiment [1] is Rattus norvegicus. The experiment is described as follows: Inhibition of prolactin release in reserpinized rat assessed as reduction in serum prolactin level at 2 mg, ip after 1 hr post dose by radioimmunoassay relative to untreated control. It counts as functional.
Experiment [2] concerns Rattus norvegicus. The experiment in a line: Inhibition of prolactin release in reserpinized rat assessed as reduction in serum prolactin level at 1 mg, ip after 1 hr post dose by radioimmunoassay relative to untreated control. Type of experiment: functional.

In the case of `COc1cc(C2CC(CC#N)CN(C)C2)c(OC)cc1C` (stereo unspecified), in the experiment on Rattus norvegicus [1], the “inhibition (INH)” value is given as -13%.

Consider `CCOC(=O)C1CN(C)CC(c2cc(OC)c(C)cc2OC)C1=O` (stereo unspecified), for which the “inhibition (INH)” value in the experiment with Rattus norvegicus [2] is recorded as 22%.

Take `CCOC(=O)C1=CC(c2cc(OC)c(C)cc2OC)CN(C)C1` (stereo unspecified): the “inhibition (INH)” value with Rattus norvegicus [1] is -5%.

For the compound `CCOC(=O)C1CC(c2cc(OC)c(C)cc2OC)CN(C)C1` (stereo unspecified), the “inhibition (INH)” value in the experiment on Rattus norvegicus [1] is given as 5%.

`COc1cc(C2CC(CO)CN(C)C2)c(OC)cc1C` (stereo unspecified): the “inhibition (INH)” value with Rattus norvegicus [1] is on record as -2%.

With `CN1CCc2cccc3c2[C@H]1Cc1ccc(O)c(O)c1-3` [APOMORPHINE], the “inhibition (INH)” value with Rattus norvegicus [2] is given as 29%.

The record behind these values is ChEMBL document CHEMBL3244087, “Ergoline congeners as potential inhibitors of prolactin release. 3. Derivatives of 3-phenylpiperidine” (1977).
